Reference: US7192931B2, “Treatment of demyelinating diseases” (Neuren Pharmaceuticals Ltd., priority 2000, dated 2007)

Columns and labels:
[1] = test system: C57Bl/6 mice with MOG35-55 peptide-induced EAE; experiment: Neuropathology scoring of spinal cord sections (pathology status scale); format: in vivo, mouse; conditions: for Pathology status scale: Oligodendrocytes** / Pathology status scale: Remyelination**: reverse scores; for Pathology status scale: Axonal damage / Pathology status scale: Demyelination / Pathology status scale: Inflammation: scored 0 to 5
Experimental: (§1) C57Bl/6 mice (8–10 week old) were injected subcutaneously in one flank with 300 μg of MOG35-55 peptide ([…]: SEQ ID NO:1) synthesized by Mimotapes Pty Ltd, Clayton, Australia and emulsified in CFA containing 500 μg of Mycobacterium tuberculosis H37Ra (DIFCO Laboratories, Detrit, USA). They also received 500 ng of pertussis toxin (List Biological Laboratories, CA, USA) in 200 μl PBS intravenously via the tail vein, followed 48 hours later by a second dose. A second injection of MOG peptide was given in the absence of pertussis toxin one week later in the opposite flank, as described previously (Kanwar et al., 2000b).
(§2) Two treatment protocols were employed, involving the treatment of early disease, versus advanced disease. For early disease, reagents were administered at day 35 (following MOG injection). Antibody was administered thrice on alternate days, whereas neuroprotectors were given daily for 6 days, where 50% of reagent was given ip and 50% iv. In the treatment of advanced disease, therapy as above was initiated at day 60, with either three or eight anti-MAdCAM-1 mAb injections, and neuroprotectors given daily for either 7 or 18 days.
Mice were perfused through the left cardiac ventricle with ice-cold PBS or glutaraldehyde, and the CNS including brain and spinal cord were prepared for frozen or epoxy sections, respectively. Thin slices were taken at all levels of the CNS including spinal cord (cervical, midthoracic, T11, T12/13, upper lumbar, L6, L7 and sacral) and sacral roots. One-μm thick epoxy sections taken from different levels of the spinal cord were stained with toluidine blue, and examined by light microscopy by an investigator blinded to the sample identity. Multiple sections from the spinal cord were scored from 0 to 5 for inflammation, demyelination, remyelination, and axonal necrosis or damage, using a previously published scoring system (Moore et al., 2000).

[2] = test system: C57Bl/6 mice with MOG35-55 peptide-induced EAE; experiment: Expanded disability status scale for EAE treated mice; format: in vivo, mouse; conditions: for Maximal disability score: Alertness / Maximal disability score: Bladder function / Maximal disability score: Eye movements / Maximal disability score: Motor (grip)* / Maximal disability score: Other signs (shine hairs and loose skin) / Maximal disability score: Sensory* Light touch / Maximal disability score: Sensory* Pain / Maximal disability score: Spontaneous mobility / Maximal disability score: Tone* / Maximal disability score: Tremor / Maximal disability score: Vision (including pupillary reflex) / Total expanded disability scale: mean values
Experimental: as §1, §2
The mice were monitored daily and scored according to the following scale: 0, no clinical signs of EAE; 1, limp tail; 2, partial hind limb paralysis; 3, complete hind limb paralysis; 4, complete hind limb and partial fore limb paralysis; 5, paralysis extending to diaphragm; 6, hind and fore limb paralysis; 7, death due to EAE. Paralysis extending to the diaphragm was denoted as difficulty in remaining upright. […] The daily mean clinical score for each group is the mean disease score of at least five mice. The body weight of animals was measured regularly throughout the experiments. The expanded disability status scale for EAE treated mice was scored using an earlier published scoring system (Villoslada et al. 2000).

Gly-Pro-Glu [GPE]
Pathology status scale: Apoptosis ([1]; day 45): 3
Pathology status scale: Oligodendrocytes** ([1]; day 45): 3
Pathology status scale: Remyelination** ([1]; day 45): 2
Pathology status scale: Axonal damage ([1]; day 45): 3
Pathology status scale: Demyelination ([1]; day 45): 3
Pathology status scale: Inflammation ([1]; day 45): 2
Pathology status scale: Apoptosis ([1]; day 60): 3
Pathology status scale: Oligodendrocytes** ([1]; day 60): 3
Pathology status scale: Remyelination** ([1]; day 60): 3
Pathology status scale: Axonal damage ([1]; day 60): 3
Pathology status scale: Demyelination ([1]; day 60): 3
Pathology status scale: Inflammation ([1]; day 60): 3
Pathology status scale: Apoptosis ([1]; day 65): 2
Pathology status scale: Oligodendrocytes** ([1]; day 65): 2
Pathology status scale: Remyelination** ([1]; day 65): 2
Pathology status scale: Axonal damage ([1]; day 65): 2
Pathology status scale: Demyelination ([1]; day 65): 2
Pathology status scale: Inflammation ([1]; day 65): 2
Pathology status scale: Apoptosis ([1]; day 70): 3
Pathology status scale: Oligodendrocytes** ([1]; day 70): 2
Pathology status scale: Remyelination** ([1]; day 70): 2
Pathology status scale: Axonal damage ([1]; day 70): 3
Pathology status scale: Demyelination ([1]; day 70): 3
Pathology status scale: Inflammation ([1]; day 70): 2
Pathology status scale: Apoptosis ([1]; day 119): 2
Pathology status scale: Oligodendrocytes** ([1]; day 119): 2
Pathology status scale: Remyelination** ([1]; day 119): 1
Pathology status scale: Axonal damage ([1]; day 119): 2
Pathology status scale: Demyelination ([1]; day 119): 2
Pathology status scale: Inflammation ([1]; day 119): 1
Total scores After treatment (pathology status scale) ([1]; sum over the six pathology parameters after treatment): 55
cumulative scores for inflammation, demyelination, remyelination, apoptosis, oligodendrocyte loss, and axonal damage following treatment ([1]; text statement of Table 2 totals): 55
total scores (disability scale) ([2]; at day 70 as printed, 35 for rat IgG treated control mice): 10
Maximal disability score: Alertness ([2]; day 55 after immunization): 2
Maximal disability score: Bladder function ([2]; day 55 after immunization): 0
Maximal disability score: Eye movements ([2]; day 55 after immunization): 1
Maximal disability score: Motor (grip)* ([2]; day 55 after immunization): 12
Maximal disability score: Other signs (shine hairs and loose skin) ([2]; day 55 after immunization): 3
Maximal disability score: Sensory* Light touch ([2]; day 55 after immunization): 8
Maximal disability score: Sensory* Pain ([2]; day 55 after immunization): 8
Maximal disability score: Spontaneous mobility ([2]; day 55 after immunization): 3
Maximal disability score: Tone* ([2]; day 55 after immunization): 12
Maximal disability score: Tremor ([2]; day 55 after immunization): 2
Maximal disability score: Vision (including pupillary reflex) ([2]; day 55 after immunization): 1
Total expanded disability scale ([2]; day 55 after immunization): 52
Maximal disability score: Alertness ([2]; day 60 after immunization): 2
Maximal disability score: Bladder function ([2]; day 60 after immunization): 1
Maximal disability score: Eye movements ([2]; day 60 after immunization): 1
Maximal disability score: Motor (grip)* ([2]; day 60 after immunization): 12
Maximal disability score: Other signs (shine hairs and loose skin) ([2]; day 60 after immunization): 2
Maximal disability score: Sensory* Light touch ([2]; day 60 after immunization): 8
Maximal disability score: Sensory* Pain ([2]; day 60 after immunization): 8
Maximal disability score: Spontaneous mobility ([2]; day 60 after immunization): 3
Maximal disability score: Tone* ([2]; day 60 after immunization): 12
Maximal disability score: Tremor ([2]; day 60 after immunization): 2
Maximal disability score: Vision (including pupillary reflex) ([2]; day 60 after immunization): 1
Total expanded disability scale ([2]; day 60 after immunization): 52
Maximal disability score: Alertness ([2]; day 65 after immunization): 1
Maximal disability score: Bladder function ([2]; day 65 after immunization): 0
Maximal disability score: Eye movements ([2]; day 65 after immunization): 0
Maximal disability score: Motor (grip)* ([2]; day 65 after immunization): 4
Maximal disability score: Other signs (shine hairs and loose skin) ([2]; day 65 after immunization): 0
Maximal disability score: Sensory* Light touch ([2]; day 65 after immunization): 0
Maximal disability score: Sensory* Pain ([2]; day 65 after immunization): 0
Maximal disability score: Spontaneous mobility ([2]; day 65 after immunization): 2
Maximal disability score: Tone* ([2]; day 65 after immunization): 8
Maximal disability score: Tremor ([2]; day 65 after immunization): 0
Maximal disability score: Vision (including pupillary reflex) ([2]; day 65 after immunization): 0
Total expanded disability scale ([2]; day 65 after immunization): 15
Maximal disability score: Alertness ([2]; day 70 after immunization): 1
Maximal disability score: Bladder function ([2]; day 70 after immunization): 0
Maximal disability score: Eye movements ([2]; day 70 after immunization): 1
Maximal disability score: Motor (grip)* ([2]; day 70 after immunization): 4
Maximal disability score: Other signs (shine hairs and loose skin) ([2]; day 70 after immunization): 0
Maximal disability score: Sensory* Light touch ([2]; day 70 after immunization): 0
Maximal disability score: Sensory* Pain ([2]; day 70 after immunization): 0
Maximal disability score: Spontaneous mobility ([2]; day 70 after immunization): 3
Maximal disability score: Tone* ([2]; day 70 after immunization): 4
Maximal disability score: Tremor ([2]; day 70 after immunization): 0
Maximal disability score: Vision (including pupillary reflex) ([2]; day 70 after immunization): 0
Total expanded disability scale ([2]; day 70 after immunization): 13
Maximal disability score: Alertness ([2]; day 75 after immunization): 1
Maximal disability score: Bladder function ([2]; day 75 after immunization): 1
Maximal disability score: Eye movements ([2]; day 75 after immunization): 0
Maximal disability score: Motor (grip)* ([2]; day 75 after immunization): 0
Maximal disability score: Other signs (shine hairs and loose skin) ([2]; day 75 after immunization): 0
Maximal disability score: Sensory* Light touch ([2]; day 75 after immunization): 0
Maximal disability score: Sensory* Pain ([2]; day 75 after immunization): 0
Maximal disability score: Spontaneous mobility ([2]; day 75 after immunization): 3
Maximal disability score: Tone* ([2]; day 75 after immunization): 4
Maximal disability score: Tremor ([2]; day 75 after immunization): 0
Maximal disability score: Vision (including pupillary reflex) ([2]; day 75 after immunization): 1
Total expanded disability scale ([2]; day 75 after immunization): 10
Maximal disability score: Alertness ([2]; day 119 after immunization): 1
Maximal disability score: Bladder function ([2]; day 119 after immunization): 0
Maximal disability score: Eye movements ([2]; day 119 after immunization): 1
Maximal disability score: Motor (grip)* ([2]; day 119 after immunization): 0
Maximal disability score: Other signs (shine hairs and loose skin) ([2]; day 119 after immunization): 0
Maximal disability score: Sensory* Light touch ([2]; day 119 after immunization): 4
Maximal disability score: Sensory* Pain ([2]; day 119 after immunization): 4
Maximal disability score: Spontaneous mobility ([2]; day 119 after immunization): 2
Maximal disability score: Tone* ([2]; day 119 after immunization): 4
Maximal disability score: Tremor ([2]; day 119 after immunization): 1
Maximal disability score: Vision (including pupillary reflex) ([2]; day 119 after immunization): 0
Total expanded disability scale ([2]; day 119 after immunization): 17
